1 compound from paper PMC4883822, “High-Efficiency Capture of Drug Resistant-Influenza Virus by Live Imaging of Sialidase Activity” (PLoS ONE, 2016) can be followed below.

This test addresses T1, sialidase (neuraminidase, NA) of oseltamivir-sensitive 838 (Influenza A virus (A/Lima/070674913/2013(H1N1)), UniProt W8DXJ8).
T1 construct: full-length viral NA on whole virus grown in MDCK cells (or on infected MDCK cells); natural 275H
Kind of test: live-focus fluorescence imaging of sialidase activity, qualitative. Type of test: cell-based. Conditions: substrate BTP3-Neu5Ac, 37 °C, 1 h, infected MDCK cells.

`CCC(CC)[C@H](NC(C)=O)[C@@H]1[C@H](O)[C@@H](C(=O)O)C[C@H]1N=C(N)N` [peramivir]: the “inhibition at 10-1000 nM (qualitative)” value is “adding BTP3-Neu5Ac with clinical use-approved NAIs (oseltamivir, zanamivir, peramivir, and laninamivir)”.
